pIC50: −log10 of the molar value.
What follows are compounds tested on HSV-1 (assay: HSV-1 infection of Vero 76 cells, viral DNA detected by hybridization capture (chemiluminescence)). Conditions: Human alphaherpesvirus 1; HSV-1 in Vero 76 cells, MOI=0.001, compounds incubated 40–48 hours at 37° C.; read-out: IC50.
Format: cell-based
Excerpt: In the following example, “MEM” means Minimal Essential Media; “FBS” means Fetal Bovine Serum; “NP40” and “Igepal” are detergents; “MOI” means Multiplicity of Infection; “NaOH” means sodium hydroxide; “MgCl2” means magnesium chloride; “dATP” means deoxyadenosine 5′ triphosphate; “dUTP” means deoxyuridine 5′ triphosphate; “dCTP” means dexoxycytidine 5′ triphosphate; “dGTP” means deoxyguanosine 5′ triphosphate; “GuSCN” means Guanidinium thiocyanate; “EDTA” means ethylenediamine tetraacetic acid; “TE” means Tris-EDTA; “SCC” means sodium chloride/sodium citrate; “APE” means a solution of ammonia acetate, ammonia phosphate, EDTA; “PBS” means phosphate buffered saline; and “HRP” means horseradish peroxidase.
Vero 76 cells were maintained in MEM with Earle's salts, L-glutamine, 8% FBS (Hyclone, A-1111-L) and 100 units/mL Penicillin-100 μg/mL Streptomycin. For assay conditions, FBS was reduced to 2%. Cells are seeded into 96-well tissue culture plates at a density of 5×10^4 cells/well after being incubated for 45 min at 37° C. in the presence of HSV-1 or HSV-2 (MOI=0.001). Test compounds are added to the wells and the plates are incubated at 37° C. for 40–48 hours. Cell lysates are prepared as follows: media was removed and replaced with 150 μL/well 0.2 N NaOH with 1% Igepal CA 630 or NP-40. Plates were incubated up to 14 days at room temperature in a humidified chamber to prevent evaporation.
For the detection probe, a gel-purified, digoxigenin-labeled, 710-bp PCR fragment of the HSV UL-15 sequence was utilized. PCR conditions included 0.5 μM primers, 180 μM dTTP, 20 μM dUTP-digoxigenin (Boehringer Mannheim 1558706), 200 μM each of dATP, dCTP, and dGTP, 1×PCR Buffer II (Perkin Elmer), 2.5 mM MgCl2, 0.025 units/μL of AmpliTaq Gold polymerase (Perkin Elmer), and 5 ng of gel-purified HSV DNA per 100 μL Extension conditions were 10 min at 95° C., followed by 30 cycles of 95° C. for 1 min, 55° C. for 30 sec, and 72° C. for 2 min. The amplification was completed with a 10-min incubation at 72° C. Primers were selected to amplify a 728 bp probe spanning a section of the HSV1 UL15 open reading frame (nucleotides 249–977). Single-stranded transcripts were purified with Promega M13 Wizard kits. The final product was mixed 1:1 with a mixture of 6 M GuSCN, 100 mM EDTA and 200 μg/mL herring sperm DNA and stored at 4° C.
The capture DNA plasmid (HSV UL13 region in pUC) was linearized by cutting with Xba I, denatured for 15 min at 95° C. and diluted immediately into Reacti-Bind DNA Coating Solution (Pierce, 17250, diluted 1:1 with TE buffer, pH 8) at 1 ng/μL 75 μL/well were added to Corning (#3922 or 9690) white 96-well plates and incubated at room temperature for at least 4 hrs before washing twice with 300 μL/well 0.2×SSC/0.05% Tween-20 (SSC/T buffer). The plates were then incubated overnight at room temperature with 150 μL/well 0.2 N NaOH, 1% IGEPAL and 10 μg/mL herring sperm DNA.
Twenty-seven (27) μL of cell lysate was combined with 45 μL of hybridization solution (final concentration: 3M GuSCN, 50 mM EDTA, 100 μg/ml salmon sperm DNA, 5×Denhardt's solution, 0.25×APE, and 5 ng of the digoxigenin-labeled detection probe). APE is 1.5 M NH4-acetate, 0.15 M NH4H2 phosphate, and 5 mM EDTA adjusted to pH 6.0. Mineral oil (50 μL) was added to prevent evaporation. The hybridization plates were incubated at 95° C. for 10 minutes to denature the DNA, then incubated at 42° C. overnight. The wells were washed 6× with 300 μL/well SSC/T buffer then incubated with 75 μL/well anti-digoxigenin-HRP-conjugated antibody (Boehringer Mannheim 1207733, 1:5000 in TE) for 30 min at room temperature. The wells were washed 6× with 300 μL/well with PBS/0.05% Tween-20 before 75 μL/well SuperSignal LBA substrate (Pierce) was added. The plates were incubated at room temperature for 30 minutes and chemiluminescence was measured in a Wallac Victor reader.
The following results were obtained for HSV-1.
Compound `Nc1nccc(-c2c(-c3cccc(Br)c3)nn3c(NC4CCCC4)cccc23)n1` [Example 27, N-[3-(2-Amino-4-pyrimidinyl)-2-(3-bromophenyl)pyrazolo[1,5-a]pyridin-7-yl]-N-cyclopentylamine] has a pIC50 of 5.82. In the case of `Nc1nccc(-c2c(-c3cccc(Br)c3)nn3c(N4CCCC4)cccc23)n1` [Example 28, 4-[2-(3-Bromophenyl)-7-(1-pyrrolidinyl)pyrazolo[1,5-a]pyridin-3-yl]-2-pyrimidinamine], the pIC50 was 5.30. Work on `c1ccc(-c2cccc(-c3nn4c(NC5CCCC5)cccc4c3-c3ccnc(NC4CCCC4)n3)c2)cc1` [Example 29, 2-[1,1′-Biphenyl]-3-yl-N-cyclopentyl-3-[2-(cyclopentylamino)-4-pyrimidinyl]pyrazolo[1,5-a]pyridin-7-amine] yielded a pIC50 of 5.52. `c1ccc(-c2cccc(-c3nn4c(N5CCCC5)cccc4c3-c3ccnc(NC4CCCC4)n3)c2)cc1` [Example 30, 4-[2-[1,1′-Biphenyl]-3-yl-7-(1-pyrrolidinyl)pyrazolo[1,5-a]pyridin-3-yl]-N-cyclopentyl-2-pyrimidinamine] gave a pIC50 of 6.10. With `c1cc(-c2ccncc2)cc(-c2nn3c(NC4CCCC4)cccc3c2-c2ccnc(NC3CCCC3)n2)c1` [Example 31, N-Cyclopentyl-3-[2-(cyclopentylamino)-4-pyrimidinyl]-2-[3-(4-pyridinyl)phenyl]pyrazolo[1,5-a]pyridin-7-amine] the pIC50 was 5.70. `c1cc(-c2ccsc2)cc(-c2nn3c(NC4CCCC4)cccc3c2-c2ccnc(NC3CCCC3)n2)c1` [Example 32, N-Cyclopentyl-3-[2-(cyclopentylamino)-4-pyrimidinyl]-2-[3-(3-thienyl)phenyl]pyrazolo[1,5-a]pyridin-7-amine] gave a pIC50 of 6.22. With `c1cc(-c2cccs2)cc(-c2nn3c(NC4CCCC4)cccc3c2-c2ccnc(NC3CCCC3)n2)c1` [Example 33, N-Cyclopentyl-3-[2-(cyclopentylamino)-4-pyrimidinyl]-2-[3-(2-thienyl)-phenyl]pyrazolo[1,5-a]pyridin-7-amine] the pIC50 was 6.10. `Nc1cccc(-c2nn3c(NC4CCCC4)cccc3c2-c2ccnc(NC3CCCC3)n2)c1` [Example 34, 2-(3-Aminophenyl)-N-cyclopentyl-3-[2-(cyclopentylamino)-4-pyrimidinyl]pyrazolo[1,5-a]pyridin-7-amine] showed a pIC50 of 6.22. With `CC(=O)Nc1cccc(-c2nn3c(NC4CCCC4)cccc3c2-c2ccnc(NC3CCCC3)n2)c1` [Example 35, N-(3-{7-(Cyclopentylamino)-3-[2-(cyclopentylamino)-4-pyrimidinyl]pyrazolo[1,5-a]pyridin-2-yl}phenyl)acetamide] the pIC50 was 5.70. `CS(=O)(=O)Nc1cccc(-c2nn3c(NC4CCCC4)cccc3c2-c2ccnc(NC3CCCC3)n2)c1` [Example 36, N-(3-{7-(Cyclopentylamino)-3-[2-(cyclopentylamino)-4-pyrimidinyl]-pyrazolo[1,5-a]pyridin-2-yl}phenyl)methanesulfonamide] showed a pIC50 of 5.52. For `Nc1cccc(-c2nn3c(N4CCCC4)cccc3c2-c2ccnc(NC3CCCC3)n2)c1` [Example 37, 4-[2-(3-Aminophenyl)-7-(1-pyrrolidinyl)pyrazolo[1,5-a]pyridin-3-yl]-N-cylopentyl-2-pyrimidinamine], the pIC50 was 5.52. Work on `c1ccc(-c2nn3c(NC4CCCC4)cccc3c2-c2ccnc(NC3CCCC3)n2)cc1` [Example 38, N-Cyclopentyl-3-[2-(cyclopentylamino)-4-pyrimidinyl]-2-phenylpyrazolo-[1,5-a]pyridin-7-amine] yielded a pIC50 of 6.52. Compound `N#Cc1cccc(-c2nn3c(NC4CCCC4)cccc3c2-c2ccnc(NC3CCCC3)n2)c1` [Example 39, 3-{7-(Cyclopentylamino)-3-[2-(cyclopentylamino)-4-pyrimidinyl]pyrazolo[1,5-a]pyridin-2-yl}benzonitrile] has a pIC50 of 6.30. For `NC(=O)c1cccc(-c2nn3c(NC4CCCC4)cccc3c2-c2ccnc(NC3CCCC3)n2)c1` [Example 40, 3-{7-(Cyclopentylamino)-3-[2-(cyclopentylamino)-4-pyrimidinyl]-pyrazolo[1,5-a]pyridin-2-yl}benzamide], the pIC50 was 5.60. `O=C(O)c1cccc(-c2nn3c(NC4CCCC4)cccc3c2-c2ccnc(NC3CCCC3)n2)c1` [Example 41, 3-{7-(Cyclopentylamino)-3-[2-(cyclopentylamino)-4-pyrimidinyl]pyrazolo-[1,5-a]pyridin-2-yl}benzoic acid] showed a pIC50 of 5.46. Compound `COc1ccc(-c2nn3c(NC4CCCC4)cccc3c2-c2ccnc(NC3CCCC3)n2)cc1Br` [Example 42, N-{4-[2-(3-Bromo-4-methoxyphenyl)-7-(cyclopentylamino)pyrazolo[1,5-a]pyridin-3-yl]-2-pyrimidinyl}-N-cyclopentylamine] has a pIC50 of 5.85. `Clc1ccc(-c2nn3c(NC4CCCC4)cccc3c2-c2ccnc(NC3CCCC3)n2)cc1Br` [Example 43, 2-(3-Bromo-4-chlorophenyl)-N-cyclopentyl-3-[2-(cyclopentylamino)-4-pyrimidinyl]pyrazolo[1,5-a]pyridin-7-amine] showed a pIC50 of 6.30. `Nc1cc(-c2nn3c(NC4CCCC4)cccc3c2-c2ccnc(NC3CCCC3)n2)ccc1Cl` [Example 44, 2-(3-Amino-4-chlorophenyl)-N-cyclopentyl-3-[2-(cyclopentylamino)-4-pyrimidinyl]pyrazolo[1,5-a]pyridin-7-amine] showed a pIC50 of 5.74. In the case of `CCCCNc1nccc(-c2c(-c3ccc(NCc4ccccc4)cc3)nn3c(NCCCC)cccc23)n1` [Example 45, 2-[4-(Benzylamino)phenyl]-N-butyl-3-[2-(butylamino)-4-pyrimidinyl]-pyrazolo[1,5-a]pyridin-7-amine], the pIC50 was 4.66. `Cc1cccc(-c2nn3c(NC4CCCC4)cccc3c2-c2ccnc(NC3CCCC3)n2)c1` [Example 46, N-Cyclopentyl-3-[2-(cyclopentylamino)-4-pyrimidinyl]-2-(3-methylphenyl)pyrazolo[1,5-a]pyridin-7-amine] showed a pIC50 of 6.70. In the case of `Cc1cccc(-c2nn3c(NC4CCCC4)cccc3c2-c2nc(NC3CCCC3)nc(C)c2C)c1` [Example 48, N-cyclopentyl-3-[2-(cyclopentylamino)-5,6-dimethyl-4-pyrimidinyl]-2-(3-methylphenyl)pyrazolo[1,5-a]pyridin-7-amine], the pIC50 was under 4.40. `Cc1cccc(-c2nn3c(NC(C)C)cccc3c2-c2ccnc(NC3CCCC3)n2)c1` [Example 49, 3-[2-(Cyclopentylamino)-4-pyrimidinyl]-N-isopropyl-2-(3-methylphenyl)pyrazolo[1,5-a]pyridin-7-amine] showed a pIC50 of 6.30. Work on `COc1cccc(-c2nn3c(Cl)cccc3c2-c2ccnc(NC3CCCC3)n2)c1` [Example 50, 4-[7-Chloro-2-(3-methoxyphenyl)pyrazolo[1,5-a]pyridin-3-yl]-N-cyclopentyl-2-pyrimidinamine] yielded a pIC50 of 5.60. `COc1cccc(-c2nn3c(NC4CCCC4)cccc3c2-c2ccnc(NC3CCCC3)n2)c1` [Example 51, N-Cyclopentyl-3-[2-(cyclopentylamino)-4-pyrimidinyl]-2-(3-methoxyphenyl)pyrazolo[1,5-a]pyridin-7-amine] showed a pIC50 of 6.68. For `COc1cccc(-c2nn3c(NC(C)C)cccc3c2-c2ccnc(NC3CCCC3)n2)c1` [Example 52, 3-[2-(Cyclopentylamino)-4-pyrimidinyl]-N-isopropyl-2-(3-methoxyphenyl)pyrazolo[1,5-a]pyridin-7-amine], the pIC50 was 6.25.

— US7153855B2, “Pyrazolopyridinyl pyrimidine therapeutic compounds” (SmithKline Beecham Corporation, priority 2001, dated 2006)
